According to patent US20100280118A1, “Methods for treating substance dependence” (The Scripps Research Institute, priority 2007, published 2010):
Marks after values point to notes of the source that are not given here.

Assays:
[1] = system: outpatients with alcohol dependence; assay: 12-week double-blind, placebo-controlled, dose-ranging study of gabapentin 900 or 1800 mg/day in alcohol dependence; type: in vivo, human; conditions: for Cohen's d, drinks per drinking day: interim analysis
Description: This example describes the study of gabapentin treatment of subjects suffering from alcohol dependence. A 12-week, double-blind, placebo-controlled, dose-ranging study was conducted with random assignment to gabapentin 900 mg/day, 1800 mg/day, or placebo. Subjects are outpatients with alcohol dependence. The 3 pharmacological treatment conditions were administered in conjunction with manual-guided behavioral counseling that incorporates strategies to increase motivation, abstinence, and medication compliance. Counseling and research assessments occurred weekly throughout the 12-week treatment phase. Post-treatment assessments occurred at Weeks 13, 24, and 36.
The criteria for inclusion are as follows: (1) Males or females over 18 years of age; (2) Meets DSM-IV criteria for current alcohol dependence; (3) Seeking research-based outpatient treatment for alcohol problems; (4) Abstinent from alcohol a minimum of 3 days to a maximum of 30 days at the time of randomization; and (5) Willing to attend 12 weekly study visits and 3 follow-up visits. The criteria for exclusion are as follows: (1) Currently meets DSM-IV criteria for dependence on substances other than alcohol, nicotine or caffeine; (2) Significant medical disorders that will increase potential risk or interfere with study participation, e.g., plasma […] >1.4 mg/dL; (3) Sexually active female subjects with childbearing potential who are pregnant, nursing or refuse to use a reliable method of birth control; (4) Meets DSM-IV criteria for a major AXIS I disorder other than alcohol dependence, including depressive and anxiety disorders, and is in need of, or currently undergoing, pharmacotherapy; (5) Inability to understand and/or comply with the provisions of the protocol and consent form; (6) Treatment with an investigational drug during the previous month; (7) Sensitivity to study drug as evidenced by adverse drug experiences with gabapentin or its ingredients; (8) Ongoing treatment with disulfuram (Antabuse), naltrexone (ReVia®), acamprosate (Campral®) or other medications that may affect study outcomes, e.g., anticonvulsants; (9) More than one month of abstinence prior to randomization; (10) Subjects who require medicated detoxification (Note: Subjects may proceed with study evaluation after completion of detoxification); (11) Subjects for whom treatment of alcoholism is being mandated by a legal authority; (12) Unable to identify at least one collateral informant to verify drinking status at baseline and monthly during study, and to assist in tracking subjects for follow-up assessments; or (13) Subjects who plan to move out of the geographic area served by the Clinic prior to study completion.
Primary outcome of the treatment was assesses with the following measures. Timeline Followback Interview (TLFB; Sobell and Sobell, 1992) provides quantity and frequency estimates of alcohol intake at baseline and throughout the study using a standard drinks format (Research Nurse, 20 minutes at screening and Week 24 and 36 follow-up visits, 5 minutes at weekly study visits). […] Therefore, TLFB data is supported by weekly breathalyzers and monthly collateral informant reports and GGT. If unresolved inconsistencies between sources occur, then the most negative outcome will be assumed accurate.
Secondary outcome of the treatment was assessed with the following measures. Alcohol Craving Questionnaire-Short Form (ACQ-SF; Singleton et al., 1994) provides a quick assessment of current drinking urges, difficulty resisting urges and anticipation of positive outcome or relief from negative affective state by drinking (baseline and every study visit, self report, 1-2 minutes). Beck Depression Inventory (BDI; Beck et al., 1961) is a self-rating of severity of depressive symptoms (baseline and every study visit, 5 minutes). Gamma glutamyl transferase (GGT) is used as a biochemical marker of alcohol abstinence or relapse. […]

[2] = system: cue-reactive, alcohol-dependent individuals; assay: Cue reactivity study, 1 week gabapentin 1200 mg vs placebo, alcohol and affective cue-induced craving; type: in vivo, human
Description: This Example describes the results of a study to examine the effectiveness of gabapentin 1200 mg for attenuating symptoms of protracted abstinence in a non treatment-seeking sample of cue-reactive, alcohol-dependent individuals. Subjects were 33 paid volunteers with current DSM-IV alcohol dependence and a strength of craving rating 1σ or greater for alcohol than water cues. Subjects were randomly assigned to gabapentin or placebo for 1-week and then participated in a within-subjects trial where each was exposed to standardized sets of pleasant, neutral, and unpleasant visual stimuli followed by alcohol or water cues. A key aspect of the study design is exposure to alcohol cues (sight and smell of the subject's favorite alcoholic beverage) without consumption. Alcohol consumption would be expected to mask the effects of any medication that targets symptoms of protracted abstinence, as either or both could attenuate such symptoms; the effects of alcohol and the drug to be tested would therefore be inextricably confounded. The design is therefore relatively novel in combining elicitation of craving while inducing both positive and negative affect (along with interaction effects) with non-consumptive alcohol cue exposure. As such it may be particularly well-suited for testing the effectiveness of pharmacological treatments intended to normalize the neurobiological imbalances associated with protracted abstinence in alcoholics.
Subject enrollment: The study was conducted at the University of Miami School of Medicine, Miami, Fla. and approved by that institution's Institutional Review Board as conforming to the ethical standards of the 1964 Declaration of Helsinki. Subjects provided written informed consent prior to participation. Subjects were non treatment-seeking paid volunteers recruited primarily through advertisements, meeting the Diagnostic and Statistical Manual of Mental Disorders, 4th Edition (DSM-IV; American Psychiatric Association, 1994) criteria for current alcohol dependence, abstinent from alcohol on the day of the study, as verified by Breath Alcohol Concentration (BAC), not in acute withdrawal as verified by a Clinical Institute Withdrawal Assessments for Alcohol (CIWA-Ar; Sullivan et al., Br J Addict 84:1353-1357, 1989) score of <8, and meeting the definition of “cue reactive”. An individual was considered cue reactive if his or her “strength of craving” score under a neutral affect condition (see Study Overview below) was ≧1 standard deviation (3 VAS rating scale points; see measures discussion) greater for alcohol than for water cues during a mini cue reactivity session. This is similar to the criterion described by Rubonis et al. (J. Stud. Alcohol. 55:487-494, 1994) to classify cue reactors. Exclusionary criteria consisted of clinically significant medical or psychiatric disorders including depression, anxiety, or dependence on substances other than alcohol and nicotine.
Study Overview and Experimental Design: Subjects meeting admission criteria were randomized to receive gabapentin 1200 mg or placebo. Because image-based affective cue reactivity was not as strong as we had anticipated, to improve statistical power we augmented the control group with untreated individuals from three otherwise-similar lab studies. Criteria for participation were the same in all cases. Dosages (matched in the placebo condition) were titrated as follows: 300 mg morning on day 1, 300 mg morning and also evening on day 2, 300 mg morning, midday and evening on day 3, and 300 mg morning and midday followed by 600 mg evening for days 4-7. On day 7 of double-blind medication, overall measures of mood, sleep, and craving were assessed. This one-week interval of chronic dosing is intended to model and predict the critical first week on medication in a Phase II or III clinical trial, when participants' experiences with sleep and mood, or side effects, can dramatically affect treatment adherence and risk for dropout. […]

[3] = system: outpatients with current cannabis dependence; assay: 12-week randomized, double-blind, placebo-controlled trial of gabapentin 1200 mg/d in cannabis dependence
[4] = system: non treatment-seeking volunteers with current cannabis and alcohol dependence; assay: Pilot laboratory study, one week gabapentin 1200 mg/d vs placebo; type: in vivo, human
Description: This Example describes treatment of subjects suffering from cannabis dependence with gabapentin. Subjects with DSM-IV cannabis dependence were enrolled in a clinical study of treatment with gabapentin. Earlier, in a pilot laboratory study, the safety and efficacy of gabapentin 1200 mg/d in non treatment-seeking volunteers with current cannabis and alcohol dependence involving were examined in one week of chronic dosing with double-blind, randomly assigned active drug or placebo. […] The results lend support to: 1) the safety and tolerability of our drug titration schedule and the steady state dose of gabapentin 1200 mg/d in outpatients with cannabis dependence; 2) the efficacy of gabapentin 1200 mg/d in treating disturbed sleep, a key symptom of cannabis withdrawal; and 3) our ability to recruit a sample of subjects with cannabis dependence who are willing to participate in clinical research involving medication. Based on the results from this pilot study, subjects with only cannabis dependence were then recruited and treated with gabapentin, as detailed below.

[5] = gabapentin 1200 mg vs placebo, day 7, alcohol vs water cue, 0-20 rating
[6] = gabapentin 1200 mg vs placebo, day 7, alcohol vs water cue, VAS 0-20
[7] = gabapentin 1200 mg vs placebo, day 7, negative vs neutral affect cue, 0-20 rating
[8] = gabapentin 1200 mg vs placebo, day 7, negative vs neutral affect cue, VAS 0-20
[9] = gabapentin 1200 mg vs placebo, day 7, positive vs neutral affect cue, 0-20 rating
[10] = gabapentin 1200 mg vs placebo, day 7, positive vs neutral affect cue, VAS 0-20
[11] = % of subjects, gabapentin 1200 mg/d

NCC1(CC(=O)O)CCCCC1 [gabapentin, (1-aminomethyl)-1-cyclohexaneacetic acid]
BDI total score ([1]; 900 mg/d vs placebo): no significant effect
sleep disturbance (PSQI), effect size d ([1]; 900 mg/d vs placebo, p<0.01): −0.50
daytime dysfunction (PSQI), effect size d ([1]; 900 mg/d vs placebo, p<0.05): −0.27
Cohen's d, drinks per drinking day ([1]; 900 mg/d vs placebo): 0.82
negative affective symptoms (BDI), effect size d ([1]; 1800 mg/d relative to placebo, p<0.05): 0.33
daytime dysfunction (PSQI), effect size d ([1]; 1800 mg/d vs placebo, p<0.01): −0.43
Cohen's d, drinks per drinking day ([1]; 1800 mg/d vs placebo): 0.71
time the beneficial effect was sustained after completing treatment ([1]; complete study (n=150)): up to 12 weeks
deaths or serious drug-related adverse events ([1]; throughout the study): no deaths or serious drug-related adverse events
subjective sleep quality or PSQI summary score ([1]; treatment vs placebo, trend for 900 mg/d, p<0.08): no significant effect
symptoms generating the drug-placebo difference in symptom counts ([2]; 1 week, gabapentin 1200 mg vs placebo): dizziness (χ^2(1)=6.1, p<0.02) and fatigue
total symptom counts over the week on medication (mean) ([2]; SAFTEE-G, 1 week, gabapentin 1200 mg, standard deviation 2.7, n=30 assessed): 3.3
Bev x Gaba, Feel strong emotion (estimated model coefficient) [2, 5]: 1.15
Bev x Gaba, Like beverage (estimated model coefficient) [2, 5]: −0.25
Bev x Gaba, SAM Arousal (estimated model coefficient) [2, 5]: −1.79
Bev x Gaba, SAM Dominance (estimated model coefficient) [2, 5]: 0.81
Bev x Gaba, SAM Valence (estimated model coefficient) [2, 5]: 3.28*
Bev x Gaba, Craving Difficult to turn down (estimated model coefficient) [2, 6]: −1.31^††
Bev x Gaba, Craving Drink Now (estimated model coefficient) [2, 6]: −1.96^†
Bev x Gaba, Craving Make Things Perfect (estimated model coefficient) [2, 6]: 0.23
Bev x Gaba, Craving Strength (estimated model coefficient) [2, 6]: −2.16^†
Aff− x Gaba, Feel strong emotion (estimated model coefficient) [2, 7]: −1.29
Aff− x Gaba, Like beverage (estimated model coefficient) [2, 7]: 0.98
Aff− x Gaba, SAM Arousal (estimated model coefficient) [2, 7]: −4.92*
Aff− x Gaba, SAM Dominance (estimated model coefficient) [2, 7]: 1.30
Aff− x Gaba, SAM Valence (estimated model coefficient) [2, 7]: 1.25
Aff− x Gaba, Craving Difficult to turn down (estimated model coefficient) [2, 8]: 1.26
Aff− x Gaba, Craving Drink Now (estimated model coefficient) [2, 8]: 0.58
Aff− x Gaba, Craving Make Things Perfect (estimated model coefficient) [2, 8]: 0.20
Aff− x Gaba, Craving Strength (estimated model coefficient) [2, 8]: 0.96
Aff+ x Gaba, Feel strong emotion (estimated model coefficient) [2, 9]: −1.08
Aff+ x Gaba, Like beverage (estimated model coefficient) [2, 9]: −0.04
Aff+ x Gaba, SAM Arousal (estimated model coefficient) [2, 9]: −3.22^†
Aff+ x Gaba, SAM Dominance (estimated model coefficient) [2, 9]: 0.80
Aff+ x Gaba, SAM Valence (estimated model coefficient) [2, 9]: 0.21
Aff+ x Gaba, Craving Difficult to turn down (estimated model coefficient) [2, 10]: −1.34^††
Aff+ x Gaba, Craving Drink Now (estimated model coefficient) [2, 10]: 0.16
Aff+ x Gaba, Craving Make Things Perfect (estimated model coefficient) [2, 10]: 0.44
Aff+ x Gaba, Craving Strength (estimated model coefficient) [2, 10]: 0.25
ARCI scores on five drug-of-abuse groups (abuse potential) ([2]; gabapentin vs. placebo, n=28): no statistically significant differences
deaths or terminations due to drug-related adverse events ([3]; 12 weeks): no deaths or terminations due to drug-related adverse events
Adverse event: Abdominal Pain [3, 11]: 25%
Adverse event: Decreased Appetite [3, 11]: 10%
Adverse event: Depression [3, 11]: 30%
Adverse event: Dizziness [3, 11]: 0%
Adverse event: Fatigue [3, 11]: 15%
Adverse event: Headache [3, 11]: 20%
Adverse event: Increased Appetite [3, 11]: 15%
Adverse event: Nausea [3, 11]: 15%
Adverse event: Nervousness [3, 11]: 25%
Adverse event: Other [3, 11]: 5%
average severity of AE's ([3]; both treatment groups, 2=mild): 2.0±0.7
number of AE's complained of per subject ([3]; gabapentin 1200 mg/d, 12 weeks, p=0.11 vs placebo): 4.0±6.7
CBC, LFT, or urinalysis values [4]: no change from baseline
adverse drug complaints [4]: no adverse drug complaints of more than mild severity
